Publication PMC4556714, “Drug Development in Conformational Diseases: A Novel Family of Chemical Chaperones that Bind and Stabilise Several Polymorphic Amyloid Structures” (PLoS ONE, 2015)

Assays:
[1] = target: T1, Bovine serum albumin (BSA, fraction V) (Bos taurus, UniProt P02769); experiment: ThT fluorescence, BSA fibrillation at […]; format: biochemical; conditions: BSA 100 μmol/L, glycine buffer pH 3, NaCl 100 mM, 65°C
T1 construct: gene ALB; mature native serum albumin, 585 residues, fraction V from Roche; heat/acid-induced amyloid aggregation

[2] = target: T1, Bovine serum albumin (BSA, fraction V); experiment: ThT fluorescence, inhibition of BSA amyloid aggregation; format: biochemical

T1 sequence (P02769 25-607): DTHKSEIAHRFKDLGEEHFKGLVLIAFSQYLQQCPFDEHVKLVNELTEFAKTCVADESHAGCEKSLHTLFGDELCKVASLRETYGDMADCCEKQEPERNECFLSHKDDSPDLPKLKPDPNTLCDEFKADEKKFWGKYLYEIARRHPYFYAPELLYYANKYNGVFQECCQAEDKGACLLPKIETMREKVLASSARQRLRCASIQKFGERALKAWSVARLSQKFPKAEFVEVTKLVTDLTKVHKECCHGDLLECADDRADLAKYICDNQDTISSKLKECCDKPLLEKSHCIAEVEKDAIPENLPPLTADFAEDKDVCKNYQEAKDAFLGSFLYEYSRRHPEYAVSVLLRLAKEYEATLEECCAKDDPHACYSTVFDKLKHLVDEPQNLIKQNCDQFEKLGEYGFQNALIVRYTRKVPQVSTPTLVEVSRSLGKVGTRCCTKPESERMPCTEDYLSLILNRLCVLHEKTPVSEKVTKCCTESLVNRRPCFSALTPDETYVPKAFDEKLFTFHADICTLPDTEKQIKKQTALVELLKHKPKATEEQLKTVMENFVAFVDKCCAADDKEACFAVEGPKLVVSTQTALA

Question: With `NCCCCNC(=O)CCC(=O)Nc1cccc2ccccc12` [G, N-(4-aminobutyl)-N'-1-naphthylsuccinamide] as the compound, how does the “% ThT fluorescence change at 100 μmol/L” value ([1]; aggregation enhancer) read?
Answer: The value was “At the same concentrations, the chaperones F and G increased BSA fibrillation”.

Question: How did the IC50 [2] turn out when `NCCNC(=O)CCC(=O)Nc1cccc2ccccc12` [A, N-(2-aminoethyl)-N'-1-naphthylsuccinamide] was run?
Answer: Its IC50 is 6.34 µM.

Question: Which IC50 [2] does the source give for `O=C(CCC(=O)Nc1cccc2ccccc12)NCCNC(=O)CCC(=O)Nc1cccc2ccccc12` [F, N3,N3'-ethane-1,2-dyilbis(N1-1-naphthylsuccinamide)] here?
Answer: The IC50 was 40 µM.

Question: `O=C(O)CCNC(=O)CCC(=O)Nc1cccc2ccccc12` [D, N-[4-(1-naphthylamino)-4-oxobutanoyl]-β-alanine] was tested. Which IC50 [2] did it give?
Answer: Its IC50 is 6.37 µM.

Question: `CSC(=S)NCCNC(=O)CCC(=O)Nc1cccc2ccccc12` [B, methyl (2-{[4-(1-naphthylamino)-4-oxobutanoyl]amino}ethyl) dithiocarbamate] was tested. Which “% ThT fluorescence change at 100 μmol/L” value [1] did it give?
Answer: The value was “chaperones A, C, D, B and E had a strong inhibitory effect on BSA fibrillation”.

Question: How did the IC50 [2] turn out when `O=C(O)CCCCCNC(=O)CCC(=O)Nc1cccc2ccccc12` [E, 6-{[4-(1-naphthylamino)-4-oxobutanoyl]amino} hexanoic acid] was run?
Answer: Its IC50 is 5.38 µM.
